ChEMBL document CHEMBL4622979, “Non-rigid Diarylmethyl Analogs of Baloxavir as Cap-Dependent Endonuclease Inhibitors of Influenza Viruses” (J Med Chem, 2020)
Active and inactive are the calls of the source. The rule behind the calls is not given here.

Columns and labels:
[1] = Selectivity index, ratio of CC50 for MDCK cells to EC50 for Influenza A/California/04/2009 (H1N1)pdm09 virus infected in MDCK cells; assay type: toxicity, cell-based; settings: dog, read-out: Ratio CC50/EC50
[2] = Stability in mouse liver S9 fraction assessed as parent compound remaining at 1 uM measured after 4 hrs by LC-MS/MS analysis; assay type: ADME, subcellular; settings: read-out: Stability
[3] = Protein binding in mouse plasma at 1 uM measured after 4 hrs by LC-MS/MS analysis; assay type: ADME, cell-free; settings: read-out: PPB (converted)
[4] = Ratio of AUClast in CD1 mouse lung to plasma at 10 mg/kg, po administered as single dose by LC-MS/MS analysis; assay type: ADME, organism-based; settings: lung and plasma, read-out: Ratio AUC
[5] = Stability in simulated gastric fluid assessed as parent compound remaining at 1 uM measured after 4 hrs at pH 1.2 by LC-MS/MS analysis; assay type: physicochemical; settings: read-out: Stability
HEK-293T [6] = assay: (§1) Inhibition of CEN polymerase activity in Influenza A/California/04/2009 (H1N1)pdm09 NP/PA/PB1/PB2 complex transfected in HEK293T cells co-expressing beta-galactosidase at 25 nM preincubated for 3 hrs followed by viral gene transfection and measured after 24 hrs by ONPG substrate based luciferase reporter gene mini-replicon assay relative to control; assay type: cell-based; settings: Influenza A virus (A/California/04/2009(H1N1))
[7] = Cytotoxicity against human HepG2 cells assessed as reduction in cell viability measured after 24 hrs in presence of glucose by MTT assay; assay type: cell-based
[8] = Stability in simulated intestinal fluid assessed as parent compound remaining at 1 uM measured after 4 hrs at pH 1.2 by LC-MS/MS analysis; assay type: physicochemical; settings: read-out: Stability
[9] = Cytotoxicity against MDCK cells assessed as reduction in cell viability by ATP bioluminescence assay; assay type: cell-based, Canis lupus familiaris; settings: dog
[10] = biological target: dopamine transporter (sodium-dependent dopamine transporter) (Homo sapiens, UniProt Q01959); assay: Binding affinity to human dopamine transporter at 10 uM relative to control; assay type: ADME; settings: read-out: Activity
dopamine transporter (sodium-dependent dopamine transporter), sequence (Q01959 whole entry): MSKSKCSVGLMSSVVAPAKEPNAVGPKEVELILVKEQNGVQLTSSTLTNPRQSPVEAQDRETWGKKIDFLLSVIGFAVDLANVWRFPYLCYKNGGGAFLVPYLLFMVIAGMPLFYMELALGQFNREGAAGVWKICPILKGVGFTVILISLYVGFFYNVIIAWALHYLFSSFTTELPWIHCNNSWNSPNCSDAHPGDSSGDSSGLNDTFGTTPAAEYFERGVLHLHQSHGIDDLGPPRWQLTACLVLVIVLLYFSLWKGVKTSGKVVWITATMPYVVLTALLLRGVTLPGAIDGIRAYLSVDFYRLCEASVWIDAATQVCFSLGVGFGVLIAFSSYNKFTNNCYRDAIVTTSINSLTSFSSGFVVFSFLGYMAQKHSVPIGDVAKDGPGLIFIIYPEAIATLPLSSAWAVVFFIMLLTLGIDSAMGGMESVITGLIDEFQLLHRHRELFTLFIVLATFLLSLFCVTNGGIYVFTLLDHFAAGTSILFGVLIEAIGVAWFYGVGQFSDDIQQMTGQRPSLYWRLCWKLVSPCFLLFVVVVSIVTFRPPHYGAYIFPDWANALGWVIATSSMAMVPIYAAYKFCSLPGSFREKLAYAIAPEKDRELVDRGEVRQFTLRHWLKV

Influenza B virus [11] = assay: Antiviral activity against Victoria lineage of Influenza B virus (B/Brisbane/60/2008) infected in MDCK cells assessed as protection against virus-induced cell death measured 72 to 96 hrs post-infection by CellTiter-Glo assay; assay type: functional, organism-based; settings: B/Brisbane/60/2008, MDCK
[12] = Toxicity in Influenza A/California/04/2009 (H1N1)pdm09 infected specific pathogen-free BALB/c mouse assessed as reduction in body weight at 20 to 50 mg/kg, po administered via gavage immediately after infection and at 12 hrs post-infection measured on 10 days post-infection; assay type: organism-based; settings: in vivo, 240 h
[13] = Cytotoxicity against human MRC5 cells assessed as reduction in cell viability by ATP bioluminescence assay; assay type: cell-based
Influenza B virus [14] = assay: Antiviral activity against Yamagata lineage of Influenza B virus (B/Florida/4/2006) infected in MDCK cells assessed as protection against virus-induced cell death measured 72 to 96 hrs post-infection by CellTiter-Glo assay; assay type: functional, organism-based; settings: B/Florida/4/2006, MDCK
Influenza A virus [15] = assay: Antiviral activity against Influenza A/California/04/2009 (H1N1)pdm09 infected in MDCK cells assessed as protection against virus-induced cell death by CellTiter-Glo assay; assay type: functional, organism-based; settings: A/California/04/2009(H1N1) pdm09, MDCK
[16] = Stability in rat liver S9 fraction assessed as parent compound remaining at 1 uM measured after 4 hrs by LC-MS/MS analysis; assay type: ADME, subcellular; settings: read-out: Stability
[17] = Protein binding in human plasma at 1 uM measured after 4 hrs by LC-MS/MS analysis; assay type: ADME, cell-free; settings: read-out: PPB (converted)
[18] = AUClast in CD1 mouse plasma at 10 mg/kg, po administered as single dose by LC-MS/MS analysis; assay type: ADME, organism-based; parameters: dose 10 mg/kg, route oral, time 0 - last
[19] = Cmax in CD1 mouse lung at 10 mg/kg, po administered as single dose by LC-MS/MS analysis; assay type: ADME, organism-based; parameters: dose 10 mg/kg, route oral
Influenza A virus [20] = assay: Antiviral activity against Influenza A virus (A/Denmark/524/2009(H1N1)) pdm09 infected in MDCK cells assessed as protection against virus-induced cell death measured 72 to 96 hrs post-infection by CellTiter-Glo assay; assay type: functional, organism-based; settings: A/Denmark/524/2009(H1N1) pdm09, MDCK
[21] = Stability in rat plasma assessed as parent compound remaining at 1 uM measured after 4 hrs by LC-MS/MS analysis; assay type: ADME, cell-free; settings: read-out: Stability
[22] = Toxicity in Influenza A/California/04/2009 (H1N1)pdm09 infected specific pathogen-free BALB/c mouse assessed as effect on body weight at 20 to 50 mg/kg, po administered via gavage immediately after infection and at 12 hrs post-infection measured after 10 days post-infection; assay type: organism-based; settings: in vivo, 240 h
[23] = Oral bioavailability in CD1 mouse at 10 mg/kg administered as single dose by LC-MS/MS analysis; assay type: ADME, organism-based; settings: in vivo
Influenza A virus [24] = assay: Antiviral activity against Influenza A/California/04/2009 (H1N1)pdm09 infected in specific pathogen-free BALB/c mouse assessed as reduction in virus titre in lung at 20 mg/kg, po administered via gavage immediately after infection and at 12 hrs post-infection measured 24 hrs post-infection; assay type: functional, organism-based
[25] = Cytotoxicity against human HepG2 cells assessed as reduction in cell viability measured after 24 hrs in presence of galactose by MTT assay; assay type: cell-based
[26] = Stability in mouse plasma assessed as parent compound remaining at 1 uM measured after 4 hrs by LC-MS/MS analysis; assay type: ADME, cell-free; settings: read-out: Stability
[27] = Cytotoxicity against MDCK cells assessed as reduction in cell viability by CellTiter-Glo assay; assay type: cell-based, Canis lupus familiaris; settings: dog
HEK-293T [28] = assay: as §1, with “100” for “25”; assay type: cell-based; settings: Influenza A virus (A/California/04/2009(H1N1))
[29] = Stability in human plasma assessed as parent compound remaining at 1 uM measured after 4 hrs by LC-MS/MS analysis; assay type: ADME, cell-free; settings: read-out: Stability
[30] = Cmax in CD1 mouse plasma at 10 mg/kg, po administered as single dose by LC-MS/MS analysis; assay type: ADME, organism-based; parameters: dose 10 mg/kg, route oral
Influenza A virus [31] = assay: (§2) Antiviral activity against Influenza A/California/04/2009 (H1N1)pdm09 infected in specific pathogen-free BALB/c mouse assessed as protection against virus-induced mouse death at 20 mg/kg, po administered via gavage immediately after infection and at 12 hrs post-infection measured on 16 days post-infection relative to control; assay type: functional
[32] = AUClast in CD1 mouse plasma at 2 mg/kg, iv administered as single dose by LC-MS/MS analysis; assay type: ADME, organism-based; parameters: dose 2 mg/kg, route intravenous, time 0 - last
[33] = Ratio of Cmax in CD1 mouse lung to plasma at 10 mg/kg, po administered as single dose by LC-MS/MS analysis; assay type: ADME, organism-based; settings: lung and plasma
[34] = Cytotoxicity against human PBMC cells assessed as reduction in cell viability by ATP bioluminescence assay; assay type: cell-based
[35] = Stability in human liver S9 fraction assessed as parent compound remaining at 1 uM measured after 4 hrs by LC-MS/MS analysis; assay type: ADME, subcellular; settings: read-out: Stability
Influenza A virus [36] = assay: as §2, with “at 50” for “at 20”; assay type: functional
[37] = Selectivity ratio of CC50 for human HepG2 cells assessed as reduction in cell viability measured after 24 hrs in presence of glucose to CC50 for human HepG2 cells assessed as reduction in cell viability measured after 24 hrs in presence of galactose; assay type: cell-based
[38] = Protein binding in rat plasma at 1 uM measured after 4 hrs by LC-MS/MS analysis; assay type: ADME, cell-free; settings: read-out: PPB (converted)
[39] = AUClast in CD1 mouse lung at 10 mg/kg, po administered as single dose by LC-MS/MS analysis; assay type: ADME, organism-based; settings: in vivo
Influenza A virus H3N2 = assay: Antiviral activity against Influenza A virus (A/Fukui/20/2004 (H3N2)) infected in MDCK cells assessed as protection against virus-induced cell death measured 72 to 96 hrs post-infection by CellTiter-Glo assay; assay type: functional, organism-based; settings: A/Fukui/20/2004, MDCK

## O=C1c2c(O)c(=O)ccn2N(C(c2ccccc2)c2ccccc2)[C@@H]2COCCN12
[1]
  selectivity ratio: 654
[2]
  remaining at 4 h, 1 µM: 97.1%
[3]
  fraction unbound at 4 h, 1 µM: 0.138
[4]
  Kp: 3.1
[5]
  remaining at 4 h, 1 µM: 96%
HEK-293T [6]
  inhibition: 17.8%
[7]
  CC50 at 24 h: 20 µM
[8]
  remaining at 4 h, 1 µM: 89.3%
[9]
  CC50: 5.8 µM
[10]
  activity at 10 µM: 71.7%
Influenza B virus [11]
  EC50: 5.1 to 28.3 µM
[12]
  Activity: Toxic
[13]
  CC50: > 100 µM
Influenza B virus [14]
  EC50: 5.1 to 28.3 µM
Influenza A virus [15]
  EC50: 0.0185 µM
[16]
  remaining at 4 h, 1 µM: 79%
[17]
  fraction unbound at 4 h, 1 µM: 0.033
[18]
  AUC(0-t): 2420 ng·h/mL
[19]
  Cmax: 3720 ng/g
Influenza A virus [20]
  EC50: 0.0036 to 0.0125 µM
[21]
  remaining at 4 h, 1 µM: 71.4%
[22]
  Activity: Non-Toxic
[23]
  bioavailability: 38.2%
Influenza A virus [24]
  Activity: Active
[25]
  CC50 at 24 h: 18 µM
[26]
  remaining at 4 h, 1 µM: 70.1%
[27]
  CC50: 12.1 µM
HEK-293T [28]
  inhibition: 70%
[29]
  remaining at 4 h, 1 µM: 63.2%
[30]
  Cmax: 1660 ng/mL
Influenza A virus [31]
  Activity: 80%
[32]
  AUC(0-t): 844 ng·h/mL
[33]
  Kp: 2.2
[34]
  CC50: 21 µM
[35]
  remaining at 4 h, 1 µM: 82.8%
Influenza A virus [36]
  Activity: 60%
[37]
  selectivity ratio at 24 h: 1.1
[38]
  fraction unbound at 4 h, 1 µM: 0.193
[39]
  AUClast: 7477 ng·h/g
Influenza A virus H3N2
  EC50: 0.0036 to 0.0125 µM
